Reference: patent publication US10689354B2, “Aminoazole derivative” (Teijin Pharma Limited, priority 2015, dated 2020)

Key:
human androgen receptor = target: T1, human androgen receptor (Homo sapiens, UniProt P10275); assay: Reporter assay of an androgen receptor responsive sequence (luciferase, transiently transfected HEK293 cells); assay type: cell-based; conditions: 24 hours incubation, relative to activity of 100 nM DHT, read-out: AR transcriptive activity (pEC50) (converted)
T1 construct: expressed in transfected cells; host or cells: HEK293
T1 sequence (P10275 1-920): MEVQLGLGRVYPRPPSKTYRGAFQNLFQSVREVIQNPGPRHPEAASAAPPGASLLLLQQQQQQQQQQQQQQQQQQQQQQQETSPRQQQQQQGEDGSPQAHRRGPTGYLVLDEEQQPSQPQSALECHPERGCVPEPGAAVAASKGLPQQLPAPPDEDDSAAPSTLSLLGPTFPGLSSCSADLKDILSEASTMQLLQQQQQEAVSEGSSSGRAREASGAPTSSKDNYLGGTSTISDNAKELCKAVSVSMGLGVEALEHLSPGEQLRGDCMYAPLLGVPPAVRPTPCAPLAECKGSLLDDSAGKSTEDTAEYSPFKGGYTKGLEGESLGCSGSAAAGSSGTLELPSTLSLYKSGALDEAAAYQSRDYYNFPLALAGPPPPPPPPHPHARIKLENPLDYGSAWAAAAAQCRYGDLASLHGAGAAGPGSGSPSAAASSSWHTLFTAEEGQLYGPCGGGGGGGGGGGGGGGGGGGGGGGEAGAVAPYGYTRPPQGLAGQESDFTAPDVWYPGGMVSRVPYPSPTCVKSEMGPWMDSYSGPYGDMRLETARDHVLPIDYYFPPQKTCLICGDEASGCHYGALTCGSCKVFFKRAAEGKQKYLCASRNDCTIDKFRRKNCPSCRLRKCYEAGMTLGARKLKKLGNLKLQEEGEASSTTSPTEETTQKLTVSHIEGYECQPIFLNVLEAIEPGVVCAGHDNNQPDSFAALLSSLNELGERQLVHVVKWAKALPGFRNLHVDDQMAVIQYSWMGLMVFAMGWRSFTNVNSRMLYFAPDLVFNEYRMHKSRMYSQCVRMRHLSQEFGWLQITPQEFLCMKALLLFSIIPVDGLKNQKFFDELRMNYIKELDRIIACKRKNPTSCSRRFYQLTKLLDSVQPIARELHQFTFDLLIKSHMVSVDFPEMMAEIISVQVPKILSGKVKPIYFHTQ
Method in brief: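 HEK293 cells transiently transfected for 3 h with ARE-firefly luciferase, full-length human AR and TK-Renilla plasmids, then exposed to compound for 24 h at 37 °C in 5% charcoal-treated FBS/DMEM. Dual-Glo luminescence read; pEC50 from 4-parameter fit relative to 100 nM DHT.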

[1] = target: T2, androgen receptor (AR-LBD) (Rattus norvegicus, UniProt P15207); assay: Evaluation of androgen receptor affinity (PolarScreen Androgen Receptor Competitor Assay Kit, Red; fluorescence polarization); conditions: 22° C. for 5 hours, relative to binding rate of 1 μM DHT, read-out: AR affinity (pEC50) (converted)
T2 construct: 5 μL of 2×AR-LBD/Fluoromone AL Red Complex contained in the kit; purchased Invitrogen
T2 sequence (P15207 651-882 limits assumed): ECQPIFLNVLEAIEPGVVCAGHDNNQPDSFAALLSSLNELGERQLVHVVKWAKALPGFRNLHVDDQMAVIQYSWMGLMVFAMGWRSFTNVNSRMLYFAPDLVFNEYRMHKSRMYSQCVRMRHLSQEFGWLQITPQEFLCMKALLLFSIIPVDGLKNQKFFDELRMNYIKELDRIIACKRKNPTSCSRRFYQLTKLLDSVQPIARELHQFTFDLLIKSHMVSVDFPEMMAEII
Method in brief: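 pEC50 values reflect tracer displacement from AR-LBD (Fluoromone AL Red complex) measured by fluorescence polarization after 5 h at 22° C, normalized to 1 μM DHT and fitted with a 4-parameter model.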

SMILES	EC50 (human androgen receptor) [nM]	EC50 [1] [nM]
Cc1sc(N(CC2CCCCC2)c2ccc(C#N)cc2)nc1C(=O)NS(C)(=O)=O [Compound 344, 2-[4-cyano-N-(cyclohexylmethyl)anilino]-5-methyl-N-methylsulfonyl-thiazole-4-carboxamide]	794	39.8
Cc1sc(N(CC2CCN(C)CC2)c2ccc(C#N)cc2)nc1C(=O)NS(C)(=O)=O [Compound 351, 2-[4-cyano-N-[(1-methyl-4-piperidyl)methyl]anilino]-5-methyl-N-methylsulfonyl-thiazole-4-carboxamide]	> 10000	> 2000
Cc1sc(N(CCCOCc2ccccc2)c2ccc(C#N)cc2)nc1C(=O)NS(C)(=O)=O [Compound 359, 2-[N-(3-benzyloxypropyl)-4-cyano-anilino]-5-methyl-N-methylsulfonyl-thiazole-4-carboxamide]	> 10000	126
Cc1sc(N(Cc2ccc3nonc3c2)c2ccc(C#N)cc2)nc1C(=O)NS(C)(=O)=O [Compound 361, 2-[N-(2,1,3-benzoxadiazol-5-ylmethyl)-4-cyano-anilino]-5-methyl-N-methylsulfonyl-thiazole-4-carboxamide]	631	39.8
CCS(=O)(=O)NC(=O)c1nc(N(Cc2ccccc2)c2ccc(C#N)cc2)sc1C [Compound 362, 2-(N-benzyl-4-cyano-anilino)-N-ethylsulfonyl-5-methyl-thiazole-4-carboxamide]	251	63.1
Cc1sc(N(Cc2ccccc2)c2ccc(C#N)cc2)nc1C(=O)NS(=O)(=O)C1CC1 [Compound 363, 2-(N-benzyl-4-cyano-anilino)-N-cyclopropylsulfonyl-5-methyl-thiazole-4-carboxamide]	1260	63.1
Cc1sc(N(Cc2ccccc2)c2ccc(C#N)cc2)nc1C(=O)NS(=O)(=O)C(F)(F)F [Compound 364, 2-(N-benzyl-4-cyano-anilino)-5-methyl-N-(trifluoromethylsulfonyl)thiazole-4-carboxamide]	> 10000	31.6
Cc1sc(N(CC2CCCCCC2)c2ccc(C#N)cc2)nc1C(=O)NS(C)(=O)=O [Compound 365, 2-[4-cyano-N-(cycloheptylmethyl)anilino]-5-methyl-N-methylsulfonyl-thiazole-4-carboxamide]	631	25.1
Cc1sc(N(CC2=CCCCC2)c2ccc(C#N)cc2)nc1C(=O)NS(C)(=O)=O [Compound 366, 2-[4-cyano-N-(cyclohexen-1-ylmethyl)anilino]-5-methyl-N-methylsulfonyl-thiazole-4-carboxamide]	50.1	39.8
Cc1sc(N(CCOCc2ccccc2)c2ccc(C#N)cc2)nc1C(=O)NS(C)(=O)=O [Compound 367, 2-[N-(2-benzyloxyethyl)-4-cyano-anilino]-5-methyl-N-methylsulfonyl-thiazole-4-carboxamide]	> 10000	158
Cc1sc(N(CCCOc2ccccc2)c2ccc(C#N)cc2)nc1C(=O)NS(C)(=O)=O [Compound 368, 2-[4-cyano-N-(3-phenoxypropyl)anilino]-5-methyl-N-methylsulfonyl-thiazole-4-carboxamide]	> 10000	100
Cc1sc(N(CCCCOc2ccccc2)c2ccc(C#N)cc2)nc1C(=O)NS(C)(=O)=O [Compound 369, 2-[4-cyano-N-(4-phenoxybutyl)anilino]-5-methyl-N-methylsulfonyl-thiazole-4-carboxamide]	> 10000	79.4
Cc1sc(N(CCOC2CCCCC2)c2ccc(C#N)cc2)nc1C(=O)NS(C)(=O)=O [Compound 370, 2-[4-cyano-N-[2-(cyclohexoxy)ethyl]anilino]-5-methyl-N-methylsulfonyl-thiazole-4-carboxamide]	2510	79.4
Cc1sc(N(Cc2ccccc2)c2ccc(C#N)cc2)nc1C(=O)NS(=O)(=O)CC(C)C [Compound 371, 2-(N-benzyl-4-cyano-anilino)-N-isobutylsulfonyl-5-methyl-thiazole-4-carboxamide]	> 10000	200
Cc1sc(N(Cc2ccccc2)c2ccc(C#N)cc2)nc1C(=O)NS(=O)(=O)CC(F)(F)F [Compound 372, 2-(N-benzyl-4-cyano-anilino)-5-methyl-N-(2,2,2-trifluoroethylsulfonyl)thiazole-4-carboxamide]	1260	31.6
Cc1sc(N(Cc2ccccc2)c2ccc(C#N)cc2)nc1C(=O)NS(=O)(=O)Cc1ccccc1 [Compound 374, 2-(N-benzyl-4-cyano-anilino)-N-benzylsulfonyl-5-methyl-thiazole-4-carboxamide]	501	39.8
COc1ccccc1CCN(c1ccc(C#N)cc1)c1nc(C(=O)NS(C)(=O)=O)c(C)s1 [Compound 376, 2-[4-cyano-N-[2-(2-methoxyphenyl)ethyl]anilino]-5-methyl-N-methylsulfonyl-thiazole-4-carboxamide]	6310	100
Cc1sc(N(Cc2cccc3ccsc23)c2ccc(C#N)cc2)nc1C(=O)NS(C)(=O)=O [Compound 378, 2-[N-(benzothiophen-7-ylmethyl)-4-cyano-anilino]-5-methyl-N-methylsulfonyl-thiazole-4-carboxamide]	50.1	25.1
Cc1sc(N(CCc2ccccc2O)c2ccc(C#N)cc2)nc1C(=O)NS(C)(=O)=O [Compound 379, 2-[4-cyano-N-[2-(2-hydroxyphenyl)ethyl]anilino]-5-methyl-N-methylsulfonyl-thiazole-4-carboxamide]	251	25.1
Cc1sc(N(Cc2ccccc2)c2ccc(C#N)cc2)nc1C(=O)NS(=O)(=O)CS(C)(=O)=O [Compound 382, 2-(N-benzyl-4-cyano-anilino)-5-methyl-N-(methylsulfonylmethylsulfonyl)thiazole-4-carboxamide]	> 10000	79.4
CCOC(=O)CS(=O)(=O)NC(=O)c1nc(N(Cc2ccccc2)c2ccc(C#N)cc2)sc1C [Compound 384, ethyl 2-[[2-(N-benzyl-4-cyano-anilino)-5-methyl-thiazole-4-carbonyl]sulfamoyl]acetate]	251	39.8
Cc1sc(N(Cc2ccccc2)c2ccc(C#N)cc2)nc1C(=O)NS(=O)(=O)Cc1cccc(Cl)c1 [Compound 386, 2-(N-benzyl-4-cyano-anilino)-N-[(3-chlorophenyl)methylsulfonyl]-5-methyl-thiazole-4-carboxamide]	> 10000	126
Cc1sc(N(Cc2ccccc2)c2ccc(C#N)cc2)nc1C(=O)NS(=O)(=O)CCC(F)(F)F [Compound 387, 2-(N-benzyl-4-cyano-anilino)-5-methyl-N-(3,3,3-trifluoropropylsulfonyl)thiazole-4-carboxamide]	398	63.1
[2H]c1c([2H])c([2H])c(C([2H])([2H])N(c2ccc(C#N)cc2)c2nc(C(=O)NS(C)(=O)=O)c(C)s2)c([2H])c1[2H] [Compound 388, 2-(4-cyano-N-[dideuterio-(2,3,4,5,6-pentadeuteriophenyl)methyl]anilino)-5-methyl-N-methylsulfonyl-thiazole-4-carboxamide]	63.1	50.1
Cc1sc(N(Cc2cccc3cccnc23)c2ccc(C#N)cc2)nc1C(=O)NS(C)(=O)=O [Compound 390, 2-[4-cyano-N-(8-quinolylmethyl)anilino]-5-methyl-N-methylsulfonyl-thiazole-4-carboxamide]	200	126
Cc1sc(N(Cc2ccccc2)c2ccc(C#N)cc2)nc1C(=O)NS(=O)(=O)CCc1ccccc1 [Compound 391, 2-(N-benzyl-4-cyano-anilino)-5-methyl-N-(2-phenylethylsulfonyl)thiazole-4-carboxamide]	> 10000	79.4
